Numbers after ± are expanded uncertainties.
What was measured:
[1] = mn = molality of the nth substance listed, in mol/kg; conditions: 99 kPa, Liquid, Alternating current cell with electrodes
[2] = 99 kPa, Liquid, Alternating current cell with electrodes

Row | Structure (SMILES) | electrical conductivity ([1]; 288.15 K, m1 = 0.01) | electrical conductivity ([1]; 293.15 K, m1 = 0.01) | electrical conductivity ([1]; 298.15 K, m1 = 0.01) | electrical conductivity ([1]; 303.15 K, m1 = 0.01) | electrical conductivity ([1]; 308.15 K, m1 = 0.01) | electrical conductivity ([1]; 313.15 K, m1 = 0.01) | electrical conductivity ([1]; 318.15 K, m1 = 0.01) | also measured
1 | CCCC[N+](CCCC)(CCCC)CCCC.[Br-] [tetrabutylammonium bromide] + O | 0.106 ± 0.0053 S/m | 0.0894 ± 0.0046 S/m | 0.0829 ± 0.0048 S/m | 0.0841 ± 0.0061 S/m | 0.083 ± 0.0053 S/m | 0.0843 ± 0.0051 S/m | 0.0856 ± 0.0062 S/m | –
2 | CCCCC[N+](CCCCC)(CCCCC)CCCCC.[Br-] [tetrapentylammonium bromide] + O | 0.0961 ± 0.0048 S/m | 0.0898 ± 0.0053 S/m | 0.0879 ± 0.0055 S/m | 0.09 ± 0.0061 S/m | 0.0897 ± 0.0061 S/m | 0.0881 ± 0.0059 S/m | 0.0903 ± 0.006 S/m | –
3 | O [water] | – | – | – | – | – | – | – | electrical conductivity ([2]; 288.15 K): 0.0005 S/m; electrical conductivity ([2]; 293.15 K): 0.000281 S/m; electrical conductivity ([2]; 298.15 K): 0.000585 S/m; electrical conductivity ([2]; 303.15 K): 0.000687 S/m; electrical conductivity ([2]; 308.15 K): 0.00057 S/m; electrical conductivity ([2]; 313.15 K): 0.000608 S/m; electrical conductivity ([2]; 318.15 K): 0.000835 S/m
4 | O [water] + CCCCCCCCCCCC[N+](C)(C)C.[Br-] | – | – | – | – | – | – | – | electrical conductivity ([1]; 288.15 K, m2 = 0): 0.0005 S/m; electrical conductivity ([1]; 293.15 K, m2 = 0): 0.000281 S/m; electrical conductivity ([1]; 298.15 K, m2 = 0): 0.000585 S/m; electrical conductivity ([1]; 303.15 K, m2 = 0): 0.000687 S/m; electrical conductivity ([1]; 308.15 K, m2 = 0): 0.00057 S/m; electrical conductivity ([1]; 313.15 K, m2 = 0): 0.000608 S/m; electrical conductivity ([1]; 318.15 K, m2 = 0): 0.000835 S/m

— the NIST ThermoML archive (doi:10.1016/j.jct.2014.07.003)
